# Experimental data reported in BindingDB's records for doi:10.1021/acs.jmedchem.7b00315 (St. John'S University, 2018).
# Assay: Inhibition of GP2b/3a in human platelet-rich plasma assessed as reduction in collagen-induced platelet aggregation preincubated for 1 min followed by collagen addition by aggregometric analysis
row,IC50 [nM],Structure (SMILES)
1,50,CCOC(=O)CC1CCN(C(=O)CC(CC)NC(=O)c2ccc(C(=N)N3CCSC3)cc2F)CC1 (stereo not drawn)
2,3100,CCOC(=O)CC1CCN(C(=O)C(C)(C)[C@H](CC)NC(=O)c2ccc(C(=N)N3CCSC3)cc2F)CC1
3,22,"CCOC(=O)CC1CCN(C(=O)C(C)(C)[C@@H](CC)NC(=O)c2ccc(C(=N)N3CCSC3)cc2F)CC1 [(1-{3-[2-Fluoro-4-(imino-thiazolidin-3-yl-methyl)-benzoylamino]-2,2-dimethyl-pentanoyl}-piperidin-4-yl)-acetic acid ethyl ester(NSL-96184)]"
